The values below come from patent USRE44962E1, “Genetically engineered plant cells and plants exhibiting resistance to glutamine synthetase inhibitors, DNA fragments and recombinants for use in the production of said cells and plants” (Bayer Cropscience N.V., priority 1986, dated 2014).

The test system of this experiment is S. lividans. It is filed as cell-based. Particulars: relative to S. lividans without the plasmid.

Take `CC(NC(=O)C(C)NC(=O)C(N)CCP(C)(=O)O)C(=O)O` (stereo not shown) [Bialaphos]: the “resistance to Bialaphos of S. lividans strains containing pBG20” value is listed as “more than 500 times”.
